ChEMBL document CHEMBL5360657, “Discovery of the TLR7/8 Antagonist MHV370 for Treatment of Systemic Autoimmune Diseases” (ACS Med Chem Lett, 2023)
pIC50: −log10 of the molar value.

Experiments:
Toll-like receptor 7 = molecular target: T1, Toll-like receptor 7 (Homo sapiens, UniProt Q9NYK1); assay: Antagonist activity at TLR7 in human PBMC cells assessed as reduction in IFN alpha measured after 20 hrs by AlphaLISA assay; assay type: cell-based
T1 sequence (Q9NYK1 whole entry): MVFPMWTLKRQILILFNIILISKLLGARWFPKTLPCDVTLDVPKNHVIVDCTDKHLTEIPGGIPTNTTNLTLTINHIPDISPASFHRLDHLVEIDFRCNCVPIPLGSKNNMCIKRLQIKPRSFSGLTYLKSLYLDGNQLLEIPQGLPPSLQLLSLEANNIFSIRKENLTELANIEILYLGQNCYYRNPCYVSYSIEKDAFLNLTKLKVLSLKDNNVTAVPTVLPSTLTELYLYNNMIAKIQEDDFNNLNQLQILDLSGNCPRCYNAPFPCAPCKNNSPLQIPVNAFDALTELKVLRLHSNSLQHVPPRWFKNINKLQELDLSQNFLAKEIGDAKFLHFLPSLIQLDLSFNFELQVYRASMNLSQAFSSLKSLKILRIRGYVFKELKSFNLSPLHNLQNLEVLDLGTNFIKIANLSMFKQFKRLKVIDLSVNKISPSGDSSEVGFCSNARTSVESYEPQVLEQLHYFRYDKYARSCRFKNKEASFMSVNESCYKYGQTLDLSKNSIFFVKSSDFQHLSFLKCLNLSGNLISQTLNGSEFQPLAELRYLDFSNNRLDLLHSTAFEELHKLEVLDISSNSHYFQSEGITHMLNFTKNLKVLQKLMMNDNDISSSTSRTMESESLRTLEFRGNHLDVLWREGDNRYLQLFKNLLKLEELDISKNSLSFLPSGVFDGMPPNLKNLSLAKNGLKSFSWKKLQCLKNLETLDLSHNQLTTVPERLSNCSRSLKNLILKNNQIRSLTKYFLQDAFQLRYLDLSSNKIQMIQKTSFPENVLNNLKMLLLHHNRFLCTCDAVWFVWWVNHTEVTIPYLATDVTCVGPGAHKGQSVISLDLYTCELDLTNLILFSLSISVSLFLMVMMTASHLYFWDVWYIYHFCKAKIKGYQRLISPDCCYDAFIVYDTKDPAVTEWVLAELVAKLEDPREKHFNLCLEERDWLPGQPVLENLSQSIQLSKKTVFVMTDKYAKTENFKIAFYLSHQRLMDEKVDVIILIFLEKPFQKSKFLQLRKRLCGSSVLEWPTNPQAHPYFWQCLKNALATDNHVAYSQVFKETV

Toll-like receptor 8 = molecular target: T2, Toll-like receptor 8 (Homo sapiens, UniProt Q9NR97); assay: Antagonist activity at TLR8 in human PBMC cells […] assessed as reduction in IL-6 level measured after 20 hrs by AlphaLISA assay; assay type: cell-based
T2 sequence (Q9NR97 whole entry): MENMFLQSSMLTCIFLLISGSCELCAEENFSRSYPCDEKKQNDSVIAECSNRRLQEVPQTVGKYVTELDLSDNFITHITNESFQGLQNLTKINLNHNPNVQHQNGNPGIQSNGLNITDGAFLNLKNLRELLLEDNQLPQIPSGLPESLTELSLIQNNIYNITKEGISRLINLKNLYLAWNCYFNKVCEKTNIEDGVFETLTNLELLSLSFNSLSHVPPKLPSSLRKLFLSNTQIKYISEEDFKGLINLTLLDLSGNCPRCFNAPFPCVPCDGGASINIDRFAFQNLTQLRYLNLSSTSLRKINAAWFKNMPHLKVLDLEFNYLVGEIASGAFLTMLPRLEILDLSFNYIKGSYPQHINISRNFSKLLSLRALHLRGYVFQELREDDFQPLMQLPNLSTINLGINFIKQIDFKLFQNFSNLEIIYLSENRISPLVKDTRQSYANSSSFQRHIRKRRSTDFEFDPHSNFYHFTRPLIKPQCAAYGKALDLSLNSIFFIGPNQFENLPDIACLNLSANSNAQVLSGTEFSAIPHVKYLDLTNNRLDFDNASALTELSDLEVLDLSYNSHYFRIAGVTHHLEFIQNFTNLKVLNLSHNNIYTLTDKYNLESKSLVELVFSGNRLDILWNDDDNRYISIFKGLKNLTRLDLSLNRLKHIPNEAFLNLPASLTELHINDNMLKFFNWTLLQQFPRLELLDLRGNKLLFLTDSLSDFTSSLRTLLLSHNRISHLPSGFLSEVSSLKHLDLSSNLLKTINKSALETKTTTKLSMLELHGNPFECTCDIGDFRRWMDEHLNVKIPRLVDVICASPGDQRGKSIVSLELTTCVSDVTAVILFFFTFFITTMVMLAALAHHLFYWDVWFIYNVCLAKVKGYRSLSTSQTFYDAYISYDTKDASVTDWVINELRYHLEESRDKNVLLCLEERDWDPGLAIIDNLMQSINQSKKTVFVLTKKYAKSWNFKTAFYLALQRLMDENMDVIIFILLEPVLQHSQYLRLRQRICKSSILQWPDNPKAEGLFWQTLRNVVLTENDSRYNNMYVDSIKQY

Toll-like receptor 9 = molecular target: T3, Toll-like receptor 9 (Homo sapiens, UniProt Q9NR96); assay: Antagonist activity at TLR9 in human PBMC cells assessed as reduction in IFN alpha measured after 20 hrs by AlphaLISA assay; assay type: cell-based
T3 sequence (Q9NR96 whole entry): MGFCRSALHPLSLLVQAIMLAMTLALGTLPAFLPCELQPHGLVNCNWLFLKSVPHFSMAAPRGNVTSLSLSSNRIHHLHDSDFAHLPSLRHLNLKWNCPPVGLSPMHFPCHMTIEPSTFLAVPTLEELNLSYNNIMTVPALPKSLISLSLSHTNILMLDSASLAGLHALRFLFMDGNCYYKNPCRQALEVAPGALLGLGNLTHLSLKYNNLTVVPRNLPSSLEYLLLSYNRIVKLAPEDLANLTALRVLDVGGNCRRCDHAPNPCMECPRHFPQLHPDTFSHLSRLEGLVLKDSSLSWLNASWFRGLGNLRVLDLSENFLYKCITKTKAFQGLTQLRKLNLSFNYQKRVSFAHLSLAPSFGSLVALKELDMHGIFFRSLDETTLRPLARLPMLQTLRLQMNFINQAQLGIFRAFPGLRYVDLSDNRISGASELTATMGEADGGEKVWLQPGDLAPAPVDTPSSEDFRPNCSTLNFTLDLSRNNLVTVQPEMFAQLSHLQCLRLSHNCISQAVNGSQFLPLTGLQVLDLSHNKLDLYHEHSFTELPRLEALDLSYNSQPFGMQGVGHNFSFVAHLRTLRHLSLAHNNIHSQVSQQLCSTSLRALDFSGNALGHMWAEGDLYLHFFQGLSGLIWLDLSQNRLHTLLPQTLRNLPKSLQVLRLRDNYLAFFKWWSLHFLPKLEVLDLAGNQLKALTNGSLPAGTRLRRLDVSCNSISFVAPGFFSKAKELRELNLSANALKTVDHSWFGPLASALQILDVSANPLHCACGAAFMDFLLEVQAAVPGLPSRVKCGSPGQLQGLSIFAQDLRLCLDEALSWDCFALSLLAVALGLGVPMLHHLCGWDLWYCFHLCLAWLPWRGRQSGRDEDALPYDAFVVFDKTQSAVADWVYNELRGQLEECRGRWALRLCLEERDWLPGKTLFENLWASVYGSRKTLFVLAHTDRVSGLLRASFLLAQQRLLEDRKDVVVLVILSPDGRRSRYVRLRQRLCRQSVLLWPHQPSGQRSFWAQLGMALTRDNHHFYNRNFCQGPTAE

[1] = Permeability of the compound by PAMPA; assay type: ADME
Cytochrome P450 3A4 [2] = molecular target: T4, Cytochrome P450 3A4 (Homo sapiens, UniProt P08684); assay: Inhibition of CYP3A4 (unknown origin); assay type: ADME
T4 sequence (P08684 whole entry): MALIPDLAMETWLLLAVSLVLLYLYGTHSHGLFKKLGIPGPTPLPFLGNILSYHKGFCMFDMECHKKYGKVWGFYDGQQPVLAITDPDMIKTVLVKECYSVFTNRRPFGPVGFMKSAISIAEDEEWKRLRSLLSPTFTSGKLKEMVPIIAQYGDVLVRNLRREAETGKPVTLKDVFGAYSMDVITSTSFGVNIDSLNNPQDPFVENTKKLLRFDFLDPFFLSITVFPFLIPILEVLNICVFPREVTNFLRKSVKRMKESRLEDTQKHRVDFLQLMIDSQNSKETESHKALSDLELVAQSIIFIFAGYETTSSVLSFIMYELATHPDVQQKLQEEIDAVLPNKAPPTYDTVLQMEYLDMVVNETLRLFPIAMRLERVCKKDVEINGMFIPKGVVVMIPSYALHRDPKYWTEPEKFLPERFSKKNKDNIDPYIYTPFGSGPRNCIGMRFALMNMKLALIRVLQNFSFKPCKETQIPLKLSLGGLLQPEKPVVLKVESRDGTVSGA

[3] = Metabolic stability in human liver microsomes assessed as intrinsic clearance; assay type: ADME, Microsome; details: read-out: CLH
[4] = Metabolic stability in mouse liver microsomes assessed as intrinsic clearance; assay type: ADME, Microsome; details: read-out: CLH
[5] = Metabolic stability in rat liver microsomes assessed as intrinsic clearance; assay type: ADME, Microsome; details: read-out: CLH
[6] = molecular target: Voltage-gated inwardly rectifying potassium channel KCNH2 (Homo sapiens, UniProt Q12809); assay: Displacement of [3H]-dofetilite from human ERG (unknown origin); assay type: toxicity
Sequence of Voltage-gated inwardly rectifying potassium channel KCNH2 (Q12809 whole entry): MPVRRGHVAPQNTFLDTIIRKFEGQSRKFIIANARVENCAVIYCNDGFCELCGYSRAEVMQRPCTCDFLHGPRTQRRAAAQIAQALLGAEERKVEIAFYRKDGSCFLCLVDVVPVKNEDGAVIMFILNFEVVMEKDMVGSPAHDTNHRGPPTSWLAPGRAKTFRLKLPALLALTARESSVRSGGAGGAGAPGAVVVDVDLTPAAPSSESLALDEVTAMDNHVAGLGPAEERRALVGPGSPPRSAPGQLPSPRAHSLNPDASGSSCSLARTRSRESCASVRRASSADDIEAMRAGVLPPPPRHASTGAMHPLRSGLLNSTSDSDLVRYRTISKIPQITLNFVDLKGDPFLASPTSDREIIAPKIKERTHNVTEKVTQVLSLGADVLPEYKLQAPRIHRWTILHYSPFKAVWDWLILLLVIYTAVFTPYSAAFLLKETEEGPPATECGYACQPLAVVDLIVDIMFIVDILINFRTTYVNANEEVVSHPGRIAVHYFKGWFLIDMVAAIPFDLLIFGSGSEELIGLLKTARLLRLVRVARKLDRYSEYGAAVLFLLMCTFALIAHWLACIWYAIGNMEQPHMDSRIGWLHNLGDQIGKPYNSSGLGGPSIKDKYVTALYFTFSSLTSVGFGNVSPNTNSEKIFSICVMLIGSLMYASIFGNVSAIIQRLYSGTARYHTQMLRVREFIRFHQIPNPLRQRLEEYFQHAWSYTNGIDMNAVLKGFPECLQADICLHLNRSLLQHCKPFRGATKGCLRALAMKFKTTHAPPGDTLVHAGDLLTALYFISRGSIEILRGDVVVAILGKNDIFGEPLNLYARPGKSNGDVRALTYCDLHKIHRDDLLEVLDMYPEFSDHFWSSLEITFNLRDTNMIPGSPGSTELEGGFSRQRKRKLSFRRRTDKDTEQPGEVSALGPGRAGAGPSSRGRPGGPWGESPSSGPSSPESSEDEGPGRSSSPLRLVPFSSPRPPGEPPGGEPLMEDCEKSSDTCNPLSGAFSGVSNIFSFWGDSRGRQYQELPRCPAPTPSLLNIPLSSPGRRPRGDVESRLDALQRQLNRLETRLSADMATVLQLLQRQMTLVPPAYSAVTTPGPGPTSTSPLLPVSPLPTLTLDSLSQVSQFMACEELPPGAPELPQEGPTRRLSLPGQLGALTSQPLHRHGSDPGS

Cytochrome P450 3A4 [7] = molecular target: T4, Cytochrome P450 3A4; assay: Time dependent inhibition of CYP3A4 (unknown origin) assessed as Kobs; assay type: ADME; further: test concentration or dose not given here

SMILES	pIC50 (Toll-like receptor 7)	pIC50 (Toll-like receptor 8)	pIC50 (Toll-like receptor 9)	log(permeability) [1]	pIC50 (Cytochrome P450 3A4 [2])	microsomal CLint [3]	microsomal CLint [4]	microsomal CLint [5]	Kobs (Cytochrome P450 3A4 [7])	pIC50 [6]
CCN(C)CC(=O)NC12CCC(Cn3nc(C)c4c3CCN(c3cc(C)nc5c3cnn5C)C4)(CC1)CC2	> 8.30	8.15	–	-4.1	4.55	463 µL/min/mg	> 700 µL/min/mg	48 µL/min/mg	0.013 min⁻¹	< 4.52
Cc1cc(N2CCc3c(c(C)nn3CC34CCC(NC(=O)CN5CCCC5)(CC3)CC4)C2)c2cnn(C)c2n1	8.40	–	5.92	-4.1	–	329 µL/min/mg	531 µL/min/mg	< 15 µL/min/mg	–	–
Cc1cc(N2CCc3c(c(C)nn3CC34CCC(N5CCN(C)CC5=O)(CC3)CC4)C2)c2cnn(C)c2n1	7.72	–	5.26	-4.3	< 4.30	71 µL/min/mg	251 µL/min/mg	50 µL/min/mg	–	< 4.52
Cc1cc(N2CCc3c(c(C)nn3CC34CCC(N5CCC5)(CC3)CC4)C2)c2cnn(C)c2n1	8.30	6.92	6.28	-4.7	< 4.30	96 µL/min/mg	65 µL/min/mg	30 µL/min/mg	0.015 min⁻¹	< 4.52
Cc1cc(N2CCc3c(c(C)nn3CC34CCC(NC(=O)[C@H]5COCCN5)(CC3)CC4)C2)c2cnn(C)c2n1	7.89	6.66	5.72	-5.3	< 4.30	54 µL/min/mg	382 µL/min/mg	< 15 µL/min/mg	0.018 min⁻¹	< 4.52
CN[C@H](C)C(=O)NC12CCC(Cn3nc(C)c4c3CCN(c3cc(C)nc5c3cnn5C)C4)(CC1)CC2	–	6.72	6.11	-5.3	< 4.30	< 15 µL/min/mg	120 µL/min/mg	< 15 µL/min/mg	0.023 min⁻¹	< 4.52

Second part, led by results:

pIC50 (Toll-like receptor 7)	pIC50 (Toll-like receptor 8)	pIC50 (Toll-like receptor 9)	log(permeability) [1]	pIC50 (Cytochrome P450 3A4 [2])	microsomal CLint [3]	microsomal CLint [4]	microsomal CLint [5]	Kobs (Cytochrome P450 3A4 [7])	SMILES	pIC50 [6]
8.70	7.17	6.72	-5.2	5.26	135 µL/min/mg	93 µL/min/mg	24 µL/min/mg	–	Cc1cc(N2CCc3c(c(C)nn3CC34CCC(NC(=O)[C@@H]5CNCCO5)(CC3)CC4)C2)c2cnn(C)c2n1	–
7.39	6.72	5.52	-5.4	–	31 µL/min/mg	< 15 µL/min/mg	29 µL/min/mg	–	Cc1cc(N2CCc3c(c(C)nn3CC34CCC(NCC(=O)N(C)C)(CC3)CC4)C2)c2cnn(C)c2n1	–
9.00	7.22	6.55	-4.6	4.77	90 µL/min/mg	–	37 µL/min/mg	0.044 min⁻¹	Cc1cc(N2CCc3c(c(C)nn3CC34CCC(NC(=O)CN5CCC5)(CC3)CC4)C2)c2cnn(C)c2n1	< 4.52
7.25	6.40	< 5.14	-5	< 4.30	39 µL/min/mg	103 µL/min/mg	87 µL/min/mg	0.015 min⁻¹	Cc1cc(N2CCc3c(c(C)nn3CC34CCC(N5CCN(C)C(=O)C5)(CC3)CC4)C2)c2cnn(C)c2n1	< 4.52
